Data reported in ChEMBL document CHEMBL3885881, “DrugMatrix”.

Species on record: Rattus norvegicus
Test: DrugMatrix - Regimen: Daily Repeat
Format: toxicity, organism-based, Sprague-Dawley
Design: regimen Daily Repeat, gender Male, age 6-8 weeks
Settings: in vivo, iv, 72 h, time 3 day, vehicle 100 % SALINE; for ABSOLUTE BASOPHIL / ABSOLUTE EOSINOPHIL / ABSOLUTE LYMPHOCYTE / ABSOLUTE MONOCYTE / ABSOLUTE SEGMENTED NEUTROPHIL / BASOPHIL / EOSINOPHIL / ERYTHROCYTE COUNT / HEMATOCRIT / HEMOGLOBIN / LEUKOCYTE COUNT / LYMPHOCYTE / MEAN CORPUSCULAR HEMOGLOBIN / MEAN CORPUSCULAR HEMOGLOBIN CONCENTRATION / MEAN CORPUSCULAR VOLUME / MONOCYTE / NEUTROPHIL / NUCLEATED RED BLOOD CELLS / PLATELET COUNT: tissue Blood; for ALANINE AMINOTRANSFERASE / ALKALINE PHOSPHATASE / ASPARTATE AMINOTRANSFERASE / BLOOD UREA NITROGEN / CARBON DIOXIDE / CHLORIDE / CHOLESTEROL / CREATINE PHOSPHOKINASE / CREATININE / GLUCOSE / LACTATE DEHYDROGENASE / LIPASE / PHOSPHORUS / POTASSIUM / SODIUM / TOTAL BILIRUBIN / TOTAL PROTEIN / URIC ACID: tissue Plasma

SMILES: COc1cc2c(c(OC)c1OC)-c1ccc(OC)c(=O)cc1[C@@H](NC(C)=O)CC2 [COLCHICINE]
- ABSOLUTE BASOPHIL (0.06 mg/kg, dose level Low): 0 CELLS/uL
- ABSOLUTE EOSINOPHIL (0.06 mg/kg, dose level Low): 27.33 CELLS/uL
- ABSOLUTE LYMPHOCYTE (0.06 mg/kg, dose level Low): 6156.67 CELLS/uL
- ABSOLUTE MONOCYTE (0.06 mg/kg, dose level Low): 0 CELLS/uL
- ABSOLUTE SEGMENTED NEUTROPHIL (0.06 mg/kg, dose level Low): 749.33 CELLS/uL
- BASOPHIL (0.06 mg/kg, dose level Low): 0%
- EOSINOPHIL (0.06 mg/kg, dose level Low): 0.33%
- ERYTHROCYTE COUNT (0.06 mg/kg, dose level Low): 5.17 x10E6/uL
- HEMATOCRIT (0.06 mg/kg, dose level Low): 32.07%
- HEMOGLOBIN (0.06 mg/kg, dose level Low): 12.27 G/DL
- LEUKOCYTE COUNT (0.06 mg/kg, dose level Low): 6.93 x10E3/uL
- LYMPHOCYTE (0.06 mg/kg, dose level Low): 89%
- MEAN CORPUSCULAR HEMOGLOBIN (0.06 mg/kg, dose level Low): 23.77 pg
- MEAN CORPUSCULAR HEMOGLOBIN CONCENTRATION (0.06 mg/kg, dose level Low): 38.27 G/DL
- MEAN CORPUSCULAR VOLUME (0.06 mg/kg, dose level Low): 62.1 fL
- MONOCYTE (0.06 mg/kg, dose level Low): 0%
- NEUTROPHIL (0.06 mg/kg, dose level Low): 10.67%
- NUCLEATED RED BLOOD CELLS (0.06 mg/kg, dose level Low): 0 /100WBC
- PLATELET COUNT (0.06 mg/kg, dose level Low): 1043 x10E3/uL
- ALANINE AMINOTRANSFERASE (0.06 mg/kg, dose level Low): 47.67 u/L
- ALKALINE PHOSPHATASE (0.06 mg/kg, dose level Low): 415.67 u/L
- ASPARTATE AMINOTRANSFERASE (0.06 mg/kg, dose level Low): 76.33 u/L
- BLOOD UREA NITROGEN (0.06 mg/kg, dose level Low): 14 mg/dL
- CARBON DIOXIDE (0.06 mg/kg, dose level Low): 31.67 mmol/L
- CHLORIDE (0.06 mg/kg, dose level Low): 96.33 MEQ/L
- CHOLESTEROL (0.06 mg/kg, dose level Low): 74 mg/dL
- CREATINE PHOSPHOKINASE (0.06 mg/kg, dose level Low): 201 u/L
- CREATININE (0.06 mg/kg, dose level Low): 0.18 mg/dL
- GLUCOSE (0.06 mg/kg, dose level Low): 136.67 mg/dL
- LACTATE DEHYDROGENASE (0.06 mg/kg, dose level Low): 97 u/L
- LIPASE (0.06 mg/kg, dose level Low): 8 u/L
- PHOSPHORUS (0.06 mg/kg, dose level Low): 13.4 mg/dL
- POTASSIUM (0.06 mg/kg, dose level Low): 6.43 MEQ/L
- SODIUM (0.06 mg/kg, dose level Low): 144.43 MEQ/L
- TOTAL BILIRUBIN (0.06 mg/kg, dose level Low): 0.17 mg/dL
- TOTAL PROTEIN (0.06 mg/kg, dose level Low): 6.37 G/DL
- URIC ACID (0.06 mg/kg, dose level Low): 1.13 mg/dL
- ABSOLUTE BASOPHIL (0.6 mg/kg, dose level High): 0 CELLS/uL
- ABSOLUTE EOSINOPHIL (0.6 mg/kg, dose level High): 18.33 CELLS/uL
- ABSOLUTE LYMPHOCYTE (0.6 mg/kg, dose level High): 4412.33 CELLS/uL
- ABSOLUTE MONOCYTE (0.6 mg/kg, dose level High): 18.33 CELLS/uL
- ABSOLUTE SEGMENTED NEUTROPHIL (0.6 mg/kg, dose level High): 317.67 CELLS/uL
- BASOPHIL (0.6 mg/kg, dose level High): 0%
- EOSINOPHIL (0.6 mg/kg, dose level High): 0.33%
- ERYTHROCYTE COUNT (0.6 mg/kg, dose level High): 4.91 x10E6/uL
- HEMATOCRIT (0.6 mg/kg, dose level High): 30.9%
- HEMOGLOBIN (0.6 mg/kg, dose level High): 11.7 G/DL
- LEUKOCYTE COUNT (0.6 mg/kg, dose level High): 4.77 x10E3/uL
- LYMPHOCYTE (0.6 mg/kg, dose level High): 93%
- MEAN CORPUSCULAR HEMOGLOBIN (0.6 mg/kg, dose level High): 23.87 pg
- MEAN CORPUSCULAR HEMOGLOBIN CONCENTRATION (0.6 mg/kg, dose level High): 37.87 G/DL
- MEAN CORPUSCULAR VOLUME (0.6 mg/kg, dose level High): 62.97 fL
- MONOCYTE (0.6 mg/kg, dose level High): 0.33%
- NEUTROPHIL (0.6 mg/kg, dose level High): 6.33%
- NUCLEATED RED BLOOD CELLS (0.6 mg/kg, dose level High): 0.33 /100WBC
- PLATELET COUNT (0.6 mg/kg, dose level High): 987.33 x10E3/uL
- ALANINE AMINOTRANSFERASE (0.6 mg/kg, dose level High): 103.67 u/L
- ALKALINE PHOSPHATASE (0.6 mg/kg, dose level High): 371.33 u/L
- ASPARTATE AMINOTRANSFERASE (0.6 mg/kg, dose level High): 526.67 u/L
- BLOOD UREA NITROGEN (0.6 mg/kg, dose level High): 14.33 mg/dL
- CARBON DIOXIDE (0.6 mg/kg, dose level High): 28.67 mmol/L
- CHLORIDE (0.6 mg/kg, dose level High): 97 MEQ/L
- CHOLESTEROL (0.6 mg/kg, dose level High): 115.67 mg/dL
- CREATINE PHOSPHOKINASE (0.6 mg/kg, dose level High): 183.67 u/L
- CREATININE (0.6 mg/kg, dose level High): 0.17 mg/dL
- GLUCOSE (0.6 mg/kg, dose level High): 165.67 mg/dL
- LACTATE DEHYDROGENASE (0.6 mg/kg, dose level High): 137.33 u/L
- LIPASE (0.6 mg/kg, dose level High): 9 u/L
- PHOSPHORUS (0.6 mg/kg, dose level High): 11.9 mg/dL
- POTASSIUM (0.6 mg/kg, dose level High): 6.74 MEQ/L
- SODIUM (0.6 mg/kg, dose level High): 144.13 MEQ/L
- TOTAL BILIRUBIN (0.6 mg/kg, dose level High): 0.13 mg/dL
- TOTAL PROTEIN (0.6 mg/kg, dose level High): 6.3 G/DL
- URIC ACID (0.6 mg/kg, dose level High): 1.67 mg/dL
